This note sets out measurements from ChEMBL document CHEMBL4334526, “Synthesis of Peptoid-Based Class I-Selective Histone Deacetylase Inhibitors with Chemosensitizing Properties” (J Med Chem, 2019).

The test system of one assay is A2780. As to the kind of experiment: Cytotoxicity against human A2780 cells assessed as reduction in cell survival up to 100 uM measured after 72 hrs by MTT assay. It counts as functional, cell-based.
Assay [1] has as its target T1, Class 1 histone deacetylase (Homo sapiens, UniProt Q13547+O15379+Q92769+Q9BY41). The assay is described as follows: Inhibition of class 1 HDAC in human CAL27 cells assessed as potentiation of cisplatin-induced cytotoxicity by measuring fold reduction in cisplatin IC50 at […] preincubated for 48 hrs followed by cisplatin addition and measured after 72 hrs by MTT assay relative to cisplatin IC50. To be noted: CAL-27. In kind it is cell-based.

Assay [2] concerns CAL-27. The assay is described as follows: Induction of apoptosis in human CAL27 cells assessed as accumulation at sub-G1 phase at […] after 48 hrs by propidium iodide staining based flow cytometry relative to control. It counts as functional. (In general: In flow cytometry, cells or beads pass a laser one at a time.)
Assay [3] concerns CAL-27. As to the kind of experiment: Induction of apoptosis in human CAL27 cells assessed as caspase-3/7 activation at […] measured after 48 hrs by CellEvent caspase 3/7 green detection reagent/Hoechst 33342 staining based imaging analysis relative to control. In kind it is functional.
Assay [4] in a line: Induction of apoptosis in human Cal27CisR cells assessed as caspase-3/7 activation at […] measured after 48 hrs by CellEvent caspase 3/7 green detection reagent/Hoechst 33342 staining based imaging analysis relative to control. It counts as functional.
Assay [5] addresses T2, Protein deacetylase HDAC6 (Homo sapiens) (UniProt Q9UBN7).
T2 sequence (whole entry): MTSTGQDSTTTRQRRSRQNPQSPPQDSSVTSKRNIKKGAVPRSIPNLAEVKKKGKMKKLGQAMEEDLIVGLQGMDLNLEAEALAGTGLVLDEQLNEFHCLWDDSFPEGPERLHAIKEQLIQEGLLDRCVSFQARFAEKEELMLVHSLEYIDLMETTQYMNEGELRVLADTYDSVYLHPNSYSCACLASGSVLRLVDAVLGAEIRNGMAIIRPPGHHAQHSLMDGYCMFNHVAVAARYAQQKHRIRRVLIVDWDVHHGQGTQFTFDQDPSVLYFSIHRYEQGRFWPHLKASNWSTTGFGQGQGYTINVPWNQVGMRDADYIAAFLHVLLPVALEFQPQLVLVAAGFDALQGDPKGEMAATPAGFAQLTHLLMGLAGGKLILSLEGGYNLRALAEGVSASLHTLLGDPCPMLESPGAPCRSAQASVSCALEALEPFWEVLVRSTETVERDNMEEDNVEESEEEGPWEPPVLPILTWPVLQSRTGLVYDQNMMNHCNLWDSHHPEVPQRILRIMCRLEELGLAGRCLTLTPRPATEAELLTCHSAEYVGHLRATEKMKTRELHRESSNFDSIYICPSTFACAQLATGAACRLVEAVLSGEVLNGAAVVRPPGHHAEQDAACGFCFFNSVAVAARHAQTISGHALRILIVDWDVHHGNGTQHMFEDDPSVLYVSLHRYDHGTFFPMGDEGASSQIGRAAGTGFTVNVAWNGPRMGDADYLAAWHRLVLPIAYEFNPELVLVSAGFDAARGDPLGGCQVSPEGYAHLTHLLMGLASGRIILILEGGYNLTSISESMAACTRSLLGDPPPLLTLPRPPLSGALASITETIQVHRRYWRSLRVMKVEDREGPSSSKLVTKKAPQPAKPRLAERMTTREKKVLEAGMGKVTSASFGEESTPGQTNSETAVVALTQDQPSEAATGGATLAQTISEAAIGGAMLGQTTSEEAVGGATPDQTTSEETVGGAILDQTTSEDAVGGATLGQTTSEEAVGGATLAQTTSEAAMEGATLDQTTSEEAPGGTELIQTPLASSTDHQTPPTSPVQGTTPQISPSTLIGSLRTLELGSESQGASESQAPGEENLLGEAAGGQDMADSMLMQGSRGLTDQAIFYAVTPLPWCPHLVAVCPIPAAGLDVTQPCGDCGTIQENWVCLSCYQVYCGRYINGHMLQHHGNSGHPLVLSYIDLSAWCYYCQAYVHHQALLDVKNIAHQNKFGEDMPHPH
The assay is described as follows: Inhibition of HDAC6 in human CAL27 cells assessed as acetylation of alpha-tubulin at […] measured after 24 hrs by immunoblot analysis. In kind it is cell-based. For orientation: In western blotting, separated proteins are transferred to a membrane and probed.

The target in assay [6] is T2, Protein deacetylase HDAC6 (Homo sapiens). The assay is described as follows: Inhibition of HDAC6 in human Cal27CisR cells assessed as acetylation of alpha-tubulin at […] measured after 24 hrs by immunoblot analysis. It counts as cell-based.
For assay [7], the target named is T1, Class 1 histone deacetylase. The assay is described as follows: Inhibition of class 1 HDAC in human CAL27 cells assessed as potentiation of cisplatin-induced cytotoxicity by measuring cisplatin IC50 at […] preincubated for 48 hrs followed by cisplatin addition and measured after 72 hrs by MTT assay (reference value: 9.79 uM). In kind it is cell-based. The note with it: cal-27. For orientation: Formazan colour is commonly taken as a measure of viable cells.

The target is the same in assay [8]. As to the kind of experiment: Inhibition of class 1 HDAC in human CAL27 cells assessed as potentiation of cisplatin-induced apoptosis assessed as increase in caspase-3/7 activation at […] preincubated for 48 hrs followed by cisplatin addition and measured after 24 hrs in presence of pan caspase inhibitor QVD by CellEvent caspase 3/7 green detection reagent/Hoechst 33342 staining based imaging analysis. To be noted: CAL-27. In kind it is cell-based.

Assay [9] has the same target. As to the kind of experiment: Inhibition of class 1 HDAC in human Cal27CisR cells assessed as potentiation of cisplatin-induced cytotoxicity by measuring cisplatin IC50 at 5 uM preincubated for 48 hrs followed by cisplatin addition and measured after 72 hrs by MTT assay (reference value: 63.2 uM). It counts as cell-based.
Assay [10] shares this target. As to the kind of experiment: Inhibition of class 1 HDAC in human Cal27CisR cells assessed as potentiation of cisplatin-induced cytotoxicity by measuring fold reduction in cisplatin IC50 at 5 uM preincubated for 48 hrs followed by cisplatin addition and measured after 72 hrs by MTT assay relative to cisplatin IC50. It counts as cell-based.
Assay [11] has the same target. The assay is described as follows: Inhibition of class 1 HDAC in human CAL27 cells assessed as potentiation of cisplatin-induced cytotoxicity by measuring combination index at 5 uM in presence of […] cisplatin by MTT assay based Chou-Talalay analysis. It counts as cell-based. The note with it: CAL-27.
Assay [12] has the same target. The assay is described as follows: Inhibition of class 1 HDAC in human Cal27CisR cells assessed as potentiation of cisplatin-induced cytotoxicity by measuring combination index at 5 uM in presence of 32 uM cisplatin by MTT assay based Chou-Talalay analysis. In kind it is cell-based.
For assay [13] the target is unchanged. As to the kind of experiment: Inhibition of class 1 HDAC in human Cal27CisR cells assessed as potentiation of cisplatin-induced cytotoxicity by measuring combination index at 5 uM in presence of 100 uM cisplatin by MTT assay based Chou-Talalay analysis. It counts as cell-based.
The target of assay [14] is T2, Protein deacetylase HDAC6 (Homo sapiens). The assay is described as follows: Inhibition of HDAC6 in human Cal27CisR cells assessed as acetylation of alpha-tubulin at 5 uM measured after 24 hrs by immunoblot analysis. In kind it is cell-based.
The target in assay [15] is T1, Class 1 histone deacetylase. The assay is described as follows: Inhibition of class 1 HDAC in human Cal27CisR cells assessed as increase in histone H3 acetylation at 5 uM measured after 24 hrs by immunoblot analysis. It counts as cell-based.
Assay [16] relates to CAL-27. As to the kind of experiment: Potency index, ratio of vorinostat IC50 to test compound IC50 for cytotoxicity against human CAL27 cells. It counts as functional.
Assay [17] addresses T1, Class 1 histone deacetylase. To be noted: CAL-27.
Description: Inhibition of class 1 HDAC in human CAL27 cells assessed as potentiation of cisplatin-induced cytotoxicity by measuring combination index at 0.1 uM in presence of 0.1 uM cisplatin by MTT assay based Chou-Talalay analysis

Activity calls are given as the source filed them. The rule behind the calls is not given here.

T1 sequence (O15379 whole entry, looked up): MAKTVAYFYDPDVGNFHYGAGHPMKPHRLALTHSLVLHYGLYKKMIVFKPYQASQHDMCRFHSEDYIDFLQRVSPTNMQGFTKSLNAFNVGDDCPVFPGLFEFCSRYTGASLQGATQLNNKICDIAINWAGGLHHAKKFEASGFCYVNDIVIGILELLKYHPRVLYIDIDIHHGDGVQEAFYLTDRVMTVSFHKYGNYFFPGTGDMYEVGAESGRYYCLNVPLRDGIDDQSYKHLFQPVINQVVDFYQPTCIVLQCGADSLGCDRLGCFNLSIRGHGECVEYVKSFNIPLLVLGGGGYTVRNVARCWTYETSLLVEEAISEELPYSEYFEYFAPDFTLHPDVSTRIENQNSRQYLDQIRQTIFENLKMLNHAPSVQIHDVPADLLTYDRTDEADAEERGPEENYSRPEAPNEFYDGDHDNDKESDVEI
T1 sequence (Q13547 whole entry, looked up): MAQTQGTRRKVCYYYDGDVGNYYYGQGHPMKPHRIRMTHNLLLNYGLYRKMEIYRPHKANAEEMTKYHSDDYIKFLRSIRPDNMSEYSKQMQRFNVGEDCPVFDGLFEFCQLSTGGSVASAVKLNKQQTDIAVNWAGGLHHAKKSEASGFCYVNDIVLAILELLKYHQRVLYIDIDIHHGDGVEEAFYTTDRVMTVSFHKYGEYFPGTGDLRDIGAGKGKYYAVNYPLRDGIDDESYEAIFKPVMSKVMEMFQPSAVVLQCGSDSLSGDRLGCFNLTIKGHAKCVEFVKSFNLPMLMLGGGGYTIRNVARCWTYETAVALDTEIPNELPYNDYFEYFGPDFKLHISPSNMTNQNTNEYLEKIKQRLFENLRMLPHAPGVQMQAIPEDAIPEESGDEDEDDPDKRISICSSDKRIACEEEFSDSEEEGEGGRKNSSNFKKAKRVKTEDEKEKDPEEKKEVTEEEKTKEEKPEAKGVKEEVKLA
T1 sequence (Q92769 whole entry, looked up): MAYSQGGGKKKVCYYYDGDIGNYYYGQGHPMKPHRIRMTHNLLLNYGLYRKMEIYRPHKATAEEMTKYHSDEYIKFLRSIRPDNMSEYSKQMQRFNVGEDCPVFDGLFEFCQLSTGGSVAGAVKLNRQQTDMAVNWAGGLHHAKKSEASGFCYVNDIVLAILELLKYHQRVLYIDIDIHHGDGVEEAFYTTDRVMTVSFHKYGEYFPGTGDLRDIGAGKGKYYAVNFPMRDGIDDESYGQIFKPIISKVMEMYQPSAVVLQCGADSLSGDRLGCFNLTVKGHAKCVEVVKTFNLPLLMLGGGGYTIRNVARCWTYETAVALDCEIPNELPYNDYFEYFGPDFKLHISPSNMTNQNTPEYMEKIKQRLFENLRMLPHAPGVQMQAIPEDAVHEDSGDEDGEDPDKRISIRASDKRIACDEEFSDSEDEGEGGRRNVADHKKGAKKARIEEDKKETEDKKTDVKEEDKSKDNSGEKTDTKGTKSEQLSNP
T1 sequence (Q9BY41 whole entry, looked up): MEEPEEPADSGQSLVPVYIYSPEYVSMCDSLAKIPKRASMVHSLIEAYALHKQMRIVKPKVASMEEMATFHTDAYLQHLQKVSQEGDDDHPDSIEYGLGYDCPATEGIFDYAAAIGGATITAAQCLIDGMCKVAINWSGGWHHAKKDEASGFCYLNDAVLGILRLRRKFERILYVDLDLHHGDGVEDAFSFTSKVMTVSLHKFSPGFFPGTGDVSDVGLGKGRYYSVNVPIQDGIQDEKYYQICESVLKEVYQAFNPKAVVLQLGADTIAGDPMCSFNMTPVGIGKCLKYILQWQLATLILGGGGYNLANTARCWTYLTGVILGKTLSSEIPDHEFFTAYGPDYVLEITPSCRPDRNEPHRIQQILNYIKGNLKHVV

For the molecule `Cc1cc(C)cc(C(=O)N(CC(=O)NCc2ccccc2)Cc2ccc(C(=O)Nc3cc(-c4ccccc4)ccc3N)cc2)c1`, the outcome in the assay on A2780 was inactive. In assay [1], the Ratio IC50 was found to be 5.26. Moreover, the values for the Activity (with CAL-27 [2]; in the assay with CAL-27 [3]; in [4]) were 6.27%, 9.47% and 5.96%, respectively. Also, the inhibition entry in [5], in [6] and in assay [8] was “inactive” each time. In addition, the IC50 in assay [7] worked out at 1.86 µM.

For the molecule `Cc1cc(C)cc(C(=O)N(CCCCCC(=O)Nc2cc(-c3ccccc3)ccc2N)CC(=O)NCc2ccccc2)c1`, in assay [9], the IC50 is 15.7 µM. Also, the Ratio IC50 in [10] stood at 4.03. In addition, the CI in assay [11] was under 0.2; in assay [12], 0.1; in assay [13] it was 0.05. Also, the inhibition entry in assay [14] is “inactive”. Further, the inhibition result in assay [15] is “Active”.

`CN(C)c1ccc(C(=O)N(CC(=O)NCc2ccccc2)Cc2ccc(C(=O)Nc3ccccc3N)cc2)cc1`: the “Ratio IC50” value with CAL-27 [16] was determined as 1.7. In [17], this molecule yielded a CI of under 0.2.

The IC50 is the concentration at which inhibition is half-maximal.
